The source of these data is PMC12210739, “A sialic acid-binding protein in Toxoplasma gondii contains a conserved globular domain in apicomplexan parasites” (Parasites & Vectors, 2025).

Test [1] relates to TgSABP1-6′SL-PAA interaction. Briefly: Competitive BLI assay of TgSABP1-6′SL-PAA interaction. Type of test: binding, Toxoplasma gondii. Particulars: 5 μM TgSABP1; for Inhibition of binding of recombinant TgSABP1 to 6′SL-PAA: SA 5, 10, 20 mM, lactose 25, 50, 100 mM, oseltamivir phosphate 30, 60 mM. The method, then: To evaluate small molecule-mediated inhibition of TgSABP1-6′SL-PAA interaction, streptavidin biosensors pre-loaded with 2.4 μM 6′SL-PAA until saturation (threshold ≥ 1.5 nm shift) were subjected to competitive binding assays on an Octet K2 system. Four test compounds were diluted to different concentrations in PBST-BSA, including SA (5, 10, and 20 mM), lactose (25, 50, and 100 mM), oseltamivir phosphate (30 and 60 mM), and eltrombopag (5 and 50 μM). The His-tagged TgSABP1 protein was diluted to 5 μM with different concentrations of compounds and incubated for 15 min at room temperature. The competition binding test included equilibration for 90 s in the compound solution, association for 60–180 s in the pre-treated protein solution, dissociation for 60–90 s in the compound solution, and regeneration [3 × 20 s pulses in HCl (pH 1.0) followed by PBS neutralization]. Data parameters were analyzed by ForteBio Data Analysis software (v 9.0.0.14) using the average reference sensors’ subtraction method and 1:1 binding model. All experiments were repeated in triplicate.

Test [2] has as its system T. gondii RH-RFP tachyzoites. In words: T. gondii host cell invasion assay in Vero cells. Type of test: cell-based. The note with it: Toxoplasma gondii. As for the experimental part:
(§1) The anti-invasive activity of eltrombopag against T. gondii was assessed using a fluorescence-based invasion assay with modifications to the established protocols. Toxoplasma gondii RH strains stably expressing red fluorescence protein were added to 2 × 10^5 Vero cells (multiplicity of infection [MOI] of 1:1) pre-treated with the drug or the equivalent volume of DMSO for 1 h. One hour after the parasites were added, the parasites were removed and the cells were gently washed with PBS three times, then incubated with DMEM containing 2% FBS. After 16 h of cultivation, the cells were fixed with 4% PFA and stained with DAPI (Beyotime, Shanghai, China). The numbers of parasitophorous vacuoles (PVs) and host cells were counted in a total of 20 randomly selected fields under a fluorescence microscope (Leica DM4B, Wetzlar, Germany). Invasion efficiency = (number of PVs/number of DAPI^+ cells) × 100%. Meanwhile, the number of parasites in each vacuole was determined. Seventy vacuoles from each coverslip were counted across at least three biological replicates. Intra-vacuolar proliferation was expressed as the mean number of parasites per PV.

The test system of a further test is T. gondii. In words: Anti-parasite activity in vivo.
In test [3] the test system is T. gondii RH-RFP tachyzoites. Briefly: Intra-vacuolar proliferation (parasites per vacuole). Type of test: cell-based, Toxoplasma gondii. The method, then: as §1

As usually defined, the inhibition is the share of the control response that was lost under treatment. For orientation: IC50 means the concentration needed to halve the response being measured.

In the case of `CCOC(=O)C1=C[C@@H](OC(CC)CC)[C@H](NC(C)=O)[C@@H](N)C1` [oseltamivir phosphate], the “Inhibition of binding of recombinant TgSABP1 to 6′SL-PAA” value in test [1] is reported as “dose-dependent inhibition”. Besides, the “Blocking of binding of recombinant TgSABP1 to 6′SL-PAA” value in test [1] (60 mM compound) is on record as “significantly blocked”.
As to `CC(=O)N[C@H]1[C@H]([C@H](O)[C@H](O)CO)OC(O)(C(=O)O)C[C@@H]1O` (some centres unmarked) [SA, sialic acid], the “Inhibition of binding of recombinant TgSABP1 to 6′SL-PAA” value in test [1] is listed as “exhibited the inhibition on the binding of recombinant TgSABP1 to 6′SL-PAA in a concentration-dependent manner”.
Same read-out and setting: next, `OC[C@H]1O[C@@H](O[C@H]2[C@H](O)[C@@H](O)C(O)O[C@@H]2CO)[C@H](O)[C@@H](O)[C@H]1O` (mixture of isomers) [lactose]: “did not”.
As to `CC1=NN(c2ccc(C)c(C)c2)C(=O)/C1=N\Nc1cccc(-c2cccc(C(=O)O)c2)c1O` [eltrombopag], the inhibition at 10 µM in test [2] (10 μM, vs DMSO control, read-out: Inhibition rate of host cell invasion) is 47.8%. Also, the inhibition at 20 µM in test [2] (20 μM, vs DMSO control, read-out: Inhibition rate of host cell invasion) came to 57.7%. In addition, the IC50 in test [2] (calculated, read-out: IC50 for anti-invasion of T. gondii) was 11.6 µM. Further, in the test on T. gondii, the “Anti-parasite activity in vivo” value is reported as “did not show any anti-parasite activity in vivo”. Also, in test [3] (10 μM), the Intracellular parasite replication entry is “without affecting intracellular parasite replication”. Further, the “Replication of invaded parasites” value in test [3] (20 μM, vs DMSO control) is on record as “significantly impaired”. For the same molecule, the “Blocking of binding of recombinant TgSABP1 to 6′SL-PAA” value in test [1] (50 μM compound) was “significantly blocked”.
